In patent US8952018B2, “Pharmaceutical combination of MEK inhibitor and B-Raf inhibitors” (GlaxoSmithKline LLC, priority 2009, dated 2015):
Like-named read-outs stand apart in the source and are kept apart here. Values belong to the molecule of their own block, whether it stands above or below them.

Key:
SW1463 = experiment: Cell growth inhibition assay (Cell Titer Glo) and combination data analysis; format: cell-based; settings: Homo sapiens, 72 h, Colon, KRAS_G12C, 3 days
Protocol: (§6) Cell growth inhibition assay and combination data analysis—All cells were cultured for a minimum of 72 hours prior to cell plating. Cells were assayed in a 96-well tissue culture plate (NUNC 136102) of RPMI medium containing 10% FBS for all cells at 1,000 cells per well. Approximately 24 hours after plating, cells were exposed to ten, three-fold serial dilutions of compound or the combination of the two agents at a constant molar to molar ratio of 1:10 Compound A (DMSO solvate) to Compound B (free form) in RPMI media containing 10% FBS. Concentrations tested for Compound A were 1 μM-0.05 nM and for Compound B were 10 μM-0.5 nM. Cells were incubated in the presence of compounds for 3 days. ATP levels were determined by adding Cell Titer Glo® (Promega) according to the manufacturer's protocol. Briefly, Cell Titer Glo® was added each plate, incubated for 30 minutes then luminescent signal was read on the SpectraMax L plate reader with a 0.5 sec integration time.

SW1417 = experiment: as above; format: cell-based; settings: Homo sapiens, 72 h, Colon, BRAF_V600E, 3 days, mean ± std
Excerpt: (§7) EOHSA values are defined as increases in improvement (here, in ‘percentage points’ (ppts) difference) produced by the combination over the best single agent at its component dose level for the combination. For single agent and combination treatments, cells were exposed to compounds at a fixed-dose-ratio, and dose response curves were fit to the experimental data and analyzed using regression models. […]

16R6-3 = experiment: as above; format: cell-based; settings: Homo sapiens, A375P-F11, 72 h, Melanoma, resistant clone of A375 PF11, BRAF_V600E, 3 days
Protocol: (§8) Cell growth inhibition assay and combination data analysis—All cells were cultured for a minimum of 72 hours prior to cell plating. Cells were assayed in a 96-well tissue culture plate (NUNC 136102) of RPMI medium containing 10% FBS for all cells at 1,000 cells per well. Approximately 24 hours after plating, cells were exposed to ten, three-fold serial dilutions of compound or the combination of the two agents at a constant molar to molar ratio of 1:10 Compound A (DMSO solvate) to Compound B (free form) in RPMI media containing 10% FBS. Concentrations tested for Compound A were 1 μM-0.05 nM and for Compound B were 10 μM-0.5 nM. […] ATP levels were determined by adding Cell Titer Glo® (Promega) according to the manufacturer's protocol. Briefly, Cell Titer Glo® was added each plate, incubated for 30 minutes then luminescent signal was read on the SpectraMax L plate reader with a 0.5 sec integration time.

HCT-8 = experiment: as above; format: cell-based; settings: Homo sapiens, 72 h, Colon, KRAS_G13D, 3 days
LS-1034 = experiment: as above; format: cell-based; settings: Homo sapiens, 72 h, Colon, KRAS_A146T, 3 days
12R8-3 = experiment: as above; format: cell-based; settings: Homo sapiens, A375P-F11, 72 h, Melanoma, resistant clone of A375 PF11, BRAF_V600E, 3 days
Protocol: as §6

HT-29 = experiment: as above; format: cell-based; settings: Homo sapiens, 72 h, Colon, BRAF_V600E, 3 days, mean ± std
Excerpt: as §7

[1] = test system: melanoma lines 12R8-3, 12R8-1, 12R5-3, and 16R6-3; experiment: Cell growth inhibition assay, summary of Table 3; format: cell-based; settings: Homo sapiens; range over 12R8-3, 12R8-1, 12R5-3, 16R6-3; read-out: IC50, single agent
[2] = test system: melanoma lines 16R5-2, 16R6-4 and 12R5-1; experiment: Cell growth inhibition assay, summary of Table 3; format: cell-based, human; settings: 16R5-2, 16R6-4, 12R5-1; compound alone
Protocol: Cell lines and growth conditions—Human colon tumor lines, Colo-205, DLD-1, HCT-8, HT-29, LS-1034, NCI-H508, RKO, SW1417, SW1463, SW480 and SW837, and human melanoma line A375 were from ATCC. A375 PF11 was derived from A375.
Cell growth inhibition assay and combination data analysis—All cells were cultured for a minimum of 72 hours prior to cell plating. Cells were assayed in a 96-well tissue culture plate (NUNC 136102) of RPMI medium containing 10% FBS for all cells at 1,000 cells per well. […] ATP levels were determined by adding Cell Titer Glo® (Promega) according to the manufacturer's protocol. Briefly, Cell Titer Glo® was added each plate, incubated for 30 minutes then luminescent signal was read on the SpectraMax L plate reader with a 0.5 sec integration time.
Inhibition of cell growth was estimated after treatment with compound or combination of compounds for three days and comparing the signal to cells treated with vehicle (DMSO). Cell growth was calculated relative to vehicle (DMSO) treated control wells. […]
The combination effects on the response scale were quantified by Excess Over Highest Single Agent (EOHSA) based on the concept of nonlinear blending as described in detail by Peterson and Novick (2007) and Peterson (2010) [(2;3) [Peterson and Novick, 2007; Peterson, 2010]. […]

16R6-4 = experiment: Cell growth inhibition assay (Cell Titer Glo) and combination data analysis; format: cell-based; settings: Homo sapiens, A375P-F11, 72 h, Melanoma, resistant clone of A375 PF11, BRAF_V600E, 3 days
Protocol: as §8

16R5-2 = experiment: as above; format: cell-based; settings: Homo sapiens, A375P-F11, 72 h, Melanoma, resistant clone of A375 PF11, BRAF_V600E, 3 days
Protocol: as §8

12R8-1 = experiment: as above; format: cell-based; settings: Homo sapiens, A375P-F11, 72 h, Melanoma, resistant clone of A375 PF11, BRAF_V600E, 3 days
Protocol: as §6

A375PF11 = experiment: as above; format: cell-based; settings: Homo sapiens, A375P-F11, 72 h, Melanoma, BRAF_V600E, 3 days, mean ± std
Protocol: as §6

12R5-3 = experiment: as above; format: cell-based; settings: Homo sapiens, A375P-F11, 72 h, Melanoma, resistant clone of A375 PF11, BRAF_V600E, 3 days
Protocol: as §6

SW837 = experiment: as above; format: cell-based; settings: Homo sapiens, 72 h, Colon, KRAS_G12C, 3 days
Colo-205 = experiment: as above; format: cell-based; settings: Homo sapiens, 72 h, Colon, BRAF_V600E, 3 days, mean ± std
Excerpt: as §7

DLD1 = experiment: as above; format: cell-based; settings: Homo sapiens, DLD-1, 72 h, Colon, KRAS_G13D, 3 days
Excerpt: as §7

RKO = experiment: as above; format: cell-based; settings: Homo sapiens, 72 h, Colon, BRAF_V600E, 3 days, mean ± std
Excerpt: as §7

[3] = test system: seven colon lines without BRAF V600E mutation (either with BRAF G596R or KRAS mutations); experiment: Cell growth inhibition assay, summary of Table 3; format: cell-based; settings: Homo sapiens
Protocol: (§1) A375 PF11 was derived from A375.
(§2) Cell growth inhibition assay and combination data analysis—All cells were cultured for a minimum of 72 hours prior to cell plating. […] Cells were incubated in the presence of compounds for 3 days. ATP levels were determined by adding Cell Titer Glo® (Promega) according to the manufacturer's protocol. Briefly, Cell Titer Glo® was added each plate, incubated for 30 minutes then luminescent signal was read on the SpectraMax L plate reader with a 0.5 sec integration time.
(§3) Inhibition of cell growth was estimated after treatment with compound or combination of compounds for three days and comparing the signal to cells treated with vehicle (DMSO). Cell growth was calculated relative to vehicle (DMSO) treated control wells.
(§4) In general, a CI value <0.9, between 0.9 and 1.1, or >1.1 indicates synergy, additivity and antagonism, respectively. In general, the smaller the Cl number, the greater is the strength of synergy.
(§5) EOHSA values are defined as increases in improvement (here, in ‘percentage points’ (ppts) difference) produced by the combination over the best single agent at its component dose level for the combination. For single agent and combination treatments, cells were exposed to compounds at a fixed-dose-ratio, and dose response curves were fit to the experimental data and analyzed using regression models. At specified total dose levels of IC50 along the dose response curve, the dose combination (corresponding to IC50) was determined for making EOHSA statistical inferences.

[4] = test system: four colon cell lines with BRAF V600E mutation; experiment: Cell growth inhibition assay, summary of Table 3; format: cell-based; settings: Homo sapiens, read-out: IC50 values, single agent
Protocol: as §1, §2, §3, §4, §5

SW480 = experiment: Cell growth inhibition assay (Cell Titer Glo) and combination data analysis; format: cell-based; settings: Homo sapiens, 72 h, Colon, KRAS_G12C, 3 days
NCI-H508 = experiment: as above; format: cell-based; settings: Homo sapiens, 72 h, Colon, BRAF_G596R, 3 days
12R5-1 = experiment: as above; format: cell-based; settings: Homo sapiens, A375P-F11, 72 h, Melanoma, resistant clone of A375 PF11, BRAF_V600E, 3 days
Protocol: as §8

[5] = mean ± std, read-out: IC50 Single Agent Compound A
[6] = read-out: IC50 Single Agent Compound A
[7] = read-out: IC50 Single Agent Compound B

IC50 (SW1463; [5]): 5 ± 4 nM
IC50 (SW1417; [6]): 3 ± 2 nM
IC50 (HCT-8; [5]): 50 ± 11 nM
IC50 (HT-29; [6]): 1 ± 1 nM
IC50 [1]: 58 to 109 nM
IC50 (A375PF11; [6]): 1 nM
IC50 (SW837; [5]): 93 ± 63 nM
IC50 (Colo-205; [6]): 1 nM
IC50 (DLD1; [5]): 557 ± 393 nM
IC50 (SW480; [5]): 42 ± 3 nM
IC50 (NCI-H508; [5]): 10 ± 5 nM
SMILES: CC(=O)Nc1cccc(-n2c(=O)n(C3CC3)c(=O)c3c(Nc4ccc(I)cc4F)n(C)c(=O)c(C)c32)c1 [Compound A, N-{3-[3-cyclopropyl-5-(2-fluoro-4-iodo-phenylamino)6,8-dimethyl-2,4,7-trioxo-3,4,6,7-tetrahydro-2H-pyrido[4,3-d]pyrimidin-1-yl]phenyl}acetamide]
IC50 (16R6-3; [5]): 109 ± 22 nM
IC50 (LS-1034; [5]): 11 ± 7 nM
IC50 (12R8-3; [5]): 59 ± 37 nM
sensitivity to single agent [2]: resistant or insensitive
IC50 (16R6-4; [6]): > 1000 nM
IC50 (16R5-2; [6]): > 1000 nM
IC50 (12R8-1; [5]): 58 ± 30 nM
IC50 (12R5-3; [5]): 92 ± 52 nM
IC50 (RKO; [6]): 25 ± 7 nM
IC50 ([3]; six out of the seven colon lines without BRAF V600E mutation, read-out: IC50s, single agent): 1 to 93 nM
IC50 ([4]; range over the four colon cell lines with BRAF V600E mutation): 1 to 25 nM
IC50 (12R5-1; [6]): > 1000 nM

SMILES: CC(C)(C)c1nc(-c2cccc(NS(=O)(=O)c3c(F)cccc3F)c2F)c(-c2ccnc(N)n2)s1 [Compound B, N-{3-[5-(2-Amino-4-pyrimidinyl)-2-(1,1-dimethylethyl)-1,3-thiazol-4-yl]-2-fluorophenyl}-2,6-difluorobenzenesulfonamide]
IC50 (SW1463; [7]): > 10000 nM
IC50 (SW1417; [7]): 203 ± 15 nM
IC50 (16R6-3; [7]): > 10000 nM
IC50 (HCT-8; [7]): > 10000 nM
IC50 (LS-1034; [7]): > 10000 nM
IC50 (12R8-3; [7]): > 10000 nM
IC50 (HT-29; [7]): 22 ± 22 nM
IC50 [1]: > 10000 nM
sensitivity to single agent [2]: resistant or insensitive
IC50 (16R6-4; [7]): > 10000 nM
IC50 (16R5-2; [7]): > 10000 nM
IC50 (12R8-1; [7]): > 10000 nM
IC50 (A375PF11; [7]): 12 nM
IC50 (12R5-3; [7]): > 10000 nM
IC50 (SW837; [7]): > 10000 nM
IC50 (Colo-205; [7]): 18 ± 13 nM
IC50 (DLD1; [7]): > 10000 nM
IC50 (RKO; [7]): 5650 ± 3900 nM
IC50 ([3]; read-out: IC50, single agent): > 10000 nM
IC50 [4]: 18 to 5650 nM
IC50 (SW480; [7]): > 10000 nM
IC50 (NCI-H508; [7]): > 10000 nM
IC50 (12R5-1; [7]): > 10000 nM
